In experiment [1] the target is T1, human TLR9 (Homo sapiens, UniProt Q9NR96).
T1 construct: host or cells: HEK-Blue cells
T1 sequence (Q9NR96 26-1032): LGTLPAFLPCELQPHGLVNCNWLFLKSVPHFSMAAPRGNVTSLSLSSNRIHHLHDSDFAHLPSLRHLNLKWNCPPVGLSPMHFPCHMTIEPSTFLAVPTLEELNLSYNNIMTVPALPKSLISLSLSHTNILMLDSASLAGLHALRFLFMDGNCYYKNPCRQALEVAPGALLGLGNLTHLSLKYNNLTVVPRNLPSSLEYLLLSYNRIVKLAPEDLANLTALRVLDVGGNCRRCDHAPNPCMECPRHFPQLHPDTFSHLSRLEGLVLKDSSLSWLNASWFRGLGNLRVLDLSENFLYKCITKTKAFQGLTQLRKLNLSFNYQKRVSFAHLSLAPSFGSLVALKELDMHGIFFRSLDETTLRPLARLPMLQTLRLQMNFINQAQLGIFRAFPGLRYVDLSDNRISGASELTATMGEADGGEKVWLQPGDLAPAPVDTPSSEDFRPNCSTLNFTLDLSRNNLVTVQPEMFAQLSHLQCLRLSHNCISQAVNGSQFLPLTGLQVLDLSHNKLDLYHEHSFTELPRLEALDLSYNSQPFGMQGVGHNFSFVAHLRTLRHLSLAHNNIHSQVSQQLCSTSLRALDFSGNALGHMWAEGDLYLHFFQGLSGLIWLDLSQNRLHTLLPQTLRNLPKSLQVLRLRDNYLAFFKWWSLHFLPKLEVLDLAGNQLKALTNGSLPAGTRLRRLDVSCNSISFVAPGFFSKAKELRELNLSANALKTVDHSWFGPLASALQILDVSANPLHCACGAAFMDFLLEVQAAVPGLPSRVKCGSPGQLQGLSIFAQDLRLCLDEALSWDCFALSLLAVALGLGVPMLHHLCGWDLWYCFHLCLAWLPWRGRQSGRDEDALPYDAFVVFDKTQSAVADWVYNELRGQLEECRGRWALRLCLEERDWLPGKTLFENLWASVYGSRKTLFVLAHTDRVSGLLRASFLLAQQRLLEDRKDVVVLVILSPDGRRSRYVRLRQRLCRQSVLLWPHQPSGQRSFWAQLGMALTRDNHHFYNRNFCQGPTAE
The experiment can be described thus: TLR9 inhibition reporter assay (HEK-Blue cells, SEAP reporter, ODN2006 stimulation). The format is cell-based. The settings on record: HEK-Blue cells overexpressing human TLR9, ODN2006 5 nM. Put shortly:
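HEK-Blue cells overexpressing human TLR7, TLR8 or TLR9 carry a SEAP reporter driven by NF-κB/AP-1 sites. Compounds (0.05 nM–50 μM) were preincubated 30 min at room temperature, then cells were stimulated with gardiquimod 7.5 μM (TLR7), R848 15.9 μM (TLR8) or ODN2006 5 nM (TLR9) for 22 h at 37 °C.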

Experiment [2] addresses T2, human TLR8 (Homo sapiens, UniProt Q9NR97).
T2 construct: host or cells: HEK-Blue cells
T2 sequence (Q9NR97 27-1041): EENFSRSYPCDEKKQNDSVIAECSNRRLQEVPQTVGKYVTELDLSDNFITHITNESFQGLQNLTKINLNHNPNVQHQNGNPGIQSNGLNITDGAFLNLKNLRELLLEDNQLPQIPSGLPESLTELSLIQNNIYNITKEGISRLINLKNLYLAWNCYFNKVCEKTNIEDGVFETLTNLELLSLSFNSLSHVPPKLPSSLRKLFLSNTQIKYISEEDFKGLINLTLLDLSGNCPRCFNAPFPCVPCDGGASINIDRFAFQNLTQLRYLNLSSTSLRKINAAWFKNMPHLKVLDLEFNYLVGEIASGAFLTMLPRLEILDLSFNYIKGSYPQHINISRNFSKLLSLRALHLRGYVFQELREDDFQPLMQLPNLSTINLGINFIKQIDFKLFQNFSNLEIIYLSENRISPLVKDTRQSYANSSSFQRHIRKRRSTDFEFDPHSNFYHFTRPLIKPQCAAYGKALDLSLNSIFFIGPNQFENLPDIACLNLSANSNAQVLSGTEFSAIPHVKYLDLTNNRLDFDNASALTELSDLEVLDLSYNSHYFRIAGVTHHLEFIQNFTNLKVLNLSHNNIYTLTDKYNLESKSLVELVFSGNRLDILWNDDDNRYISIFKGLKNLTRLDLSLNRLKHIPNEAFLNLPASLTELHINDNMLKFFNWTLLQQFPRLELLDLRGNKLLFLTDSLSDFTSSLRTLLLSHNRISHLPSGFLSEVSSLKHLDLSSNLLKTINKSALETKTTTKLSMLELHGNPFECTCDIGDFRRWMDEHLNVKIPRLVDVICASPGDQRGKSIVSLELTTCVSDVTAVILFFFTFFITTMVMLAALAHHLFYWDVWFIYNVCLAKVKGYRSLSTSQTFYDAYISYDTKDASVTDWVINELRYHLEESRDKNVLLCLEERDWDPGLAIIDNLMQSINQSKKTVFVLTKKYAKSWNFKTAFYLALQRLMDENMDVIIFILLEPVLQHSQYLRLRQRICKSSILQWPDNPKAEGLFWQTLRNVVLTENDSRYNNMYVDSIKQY
The experiment can be described thus: TLR8 inhibition reporter assay (HEK-Blue cells, SEAP reporter, R848 stimulation). The format is cell-based. As to conditions: HEK-Blue cells overexpressing human TLR8, R848 15.9 μM. Put shortly:
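SEAP readout via HEK-Blue Detection medium after 22 h at 37 °C, 5% CO2 defines inhibition, normalized between agonist-plus-DMSO wells and a reference inhibitor. Compound dose range 0.05 nM–50 μM; TLR7 cells at 15,000/well (gardiquimod), TLR8 at 20,000/well (R848).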

Molecules are shown by their SMILES.

With `COc1ccc(-c2[nH]c3ccc(C4CCN(C5CCN(C6CCC(C)CC6)CC5)CC4)cc3c2C)cc1OC` (stereo not drawn) [Example 80, 2-(3,4-dimethoxyphenyl)-3-methyl-5-(1′-(4-methylcyclohexyl)-[1,4′-bipiperidin]-4-yl)-1H-indole], the results for the IC50 in experiment [1] and in experiment [2] were 80 nM and 284 nM, respectively.

On to `COc1ccc(-c2[nH]c3ccc(C4CCN(C5CCN(C6CCC(O)CC6)CC5)CC4)cc3c2C)cc1OC` (stereo not drawn) [Example 84, 4-(4-(2-(3,4-dimethoxyphenyl)-3-methyl-1H-indol-5-yl)-[1,4′-bipiperidin]-1′-yl)cyclohexan-1-ol], for which the results for the IC50 in experiment [1] and in experiment [2] were 192 nM and 143 nM, respectively.

In the case of `COc1ccc(-c2[nH]c3ccc(C4CCN(C5CCCN(C)CC5)CC4)cc3c2C)cc1OC` (stereo not drawn) [Example 91, 2-(3,4-dimethoxyphenyl)-3-methyl-5-(1-(1-methylazepan-4-yl)piperidin-4-yl)-1H-indole], the IC50 in experiment [1] amounted to 313 nM; in experiment [2], 352 nM.

With `COc1ccc(-c2[nH]c3ccc(C4CCN(C5CCCN(C6CCCC6)CC5)CC4)cc3c2C)cc1OC` (stereo not drawn) [Example 93, 5-(1-(1-cyclopentylazepan-4-yl)piperidin-4-yl)-2-(3,4-dimethoxyphenyl)-3-methyl-1H-indole], the IC50 in experiment [1] was determined as 237 nM; in experiment [2], 302 nM.

Turning to `COc1ccc(-c2[nH]c3ccc(C4CCN(C5CCCN(CC6CC6)CC5)CC4)cc3c2C)cc1OC` (stereo not drawn) [Example 94, 5-(1-(1-(cyclopropylmethyl)azepan-4-yl)piperidin-4-yl)-2-(3,4-dimethoxyphenyl)-3-methyl-1H-indole], the IC50 in experiment [1] came out at 195 nM; in experiment [2] it was 281 nM.

As to `COc1ccc(-c2[nH]c3ccc(C4CCN(C5CCCN(CC(C)C)CC5)CC4)cc3c2C)cc1OC` (stereo not drawn) [Example 95, 2-(3,4-dimethoxyphenyl)-5-(1-(1-isobutylazepan-4-yl)piperidin-4-yl)-3-methyl-1H-indole], the IC50 in experiment [1] was found to be 115 nM; in experiment [2], 195 nM.

Consider `CCN1CCCC(N2CCC(c3ccc4[nH]c(-c5ccc(OC)c(OC)c5)c(C)c4c3)CC2)CC1` (stereo not drawn) [Example 97, 2-(3,4-dimethoxyphenyl)-5-(1-(1-ethylazepan-4-yl)piperidin-4-yl)-3-methyl-1H-indole], for which the IC50 in experiment [1] turned out to be 397 nM; in experiment [2], 196 nM.

As to `COc1ccc(-c2[nH]c3ccc(C4CCN(C(=O)CNCCC(C)O)CC4)cc3c2C)cc1OC` (stereo not drawn) [Example 406, 1-(4-(2-(3,4-dimethoxyphenyl)-3-methyl-1H-indol-5-yl)piperidin-1-yl)-2-((3-hydroxybutyl)amino)ethan-1-one], the IC50 in experiment [1] turned out to be 3890 nM; in experiment [2] it was 2050 nM.

In the case of `COc1ccc(-c2[nH]c3ccc(C4CCN(C(=O)CN5CCC(N(C)C)CC5)CC4)cc3c2C)cc1OC` [Example 407, 1-(4-(2-(3,4-dimethoxyphenyl)-3-methyl-1H-indol-5-yl)piperidin-1-yl)-2-(4-(dimethylamino)piperidin-1-yl)ethan-1-one], the IC50 was 11500 nM in experiment [1] and no less than 50000 nM in experiment [2].

In the case of `COc1ccc(-c2[nH]c3ccc(C4CCN(C(=O)CN(C)CCO)CC4)cc3c2C)cc1OC` [Example 408, 1-(4-(2-(3,4-dimethoxyphenyl)-3-methyl-1H-indol-5-yl)piperidin-1-yl)-2-((2-hydroxyethyl)(methyl)amino)ethan-1-one], the IC50 in experiment [1] came to 2000 nM; in experiment [2], 4770 nM.

Regarding `COc1ccc(-c2[nH]c3ccc(C4CCN(C(=O)CN5CCN(C)CC5)CC4)cc3c2C)cc1OC` [Example 409, 1-(4-(2-(3,4-dimethoxyphenyl)-3-methyl-1H-indol-5-yl)piperidin-1-yl)-2-(4-methylpiperazin-1-yl)ethan-1-one], the IC50 in experiment [1] stood at 2350 nM; in experiment [2], 11200 nM.

`COc1ccc(-c2[nH]c3ccc(C4CCN(C(=O)CN5CCCN(C)CC5)CC4)cc3c2C)cc1OC` [Example 410, 1-(4-(2-(3,4-dimethoxyphenyl)-3-methyl-1H-indol-5-yl)piperidin-1-yl)-2-(4-methyl-1,4-diazepan-1-yl)ethan-1-one]: the IC50 was found to be 5250 nM in experiment [1] and 21100 nM in experiment [2].

For the compound `C#CCCCCC(=O)NCCN1CCC(c2ccc3[nH]c(-c4ccc(OC)c(OC)c4)c(C(C)C)c3c2)CC1` [Example 411, N-(2-(4-(2-(3,4-dimethoxyphenyl)-3-isopropyl-1H-indol-5-yl)piperidin-1-yl)ethyl)hept-6-ynamide], the IC50 came out at 3890 nM in experiment [1] and 36 nM in experiment [2].

Regarding `COc1ccc(-c2[nH]c3ccc(C4CCN(C5CCN(C(C)C)CC5)CC4)cc3c2CC(F)(F)F)cc1OC` [Example 412, 2-(3,4-dimethoxyphenyl)-5-(1′-isopropyl-[1,4′-bipiperidin]-4-yl)-3-(2,2,2-trifluoroethyl)-1H-indole], the IC50 in experiment [1] is 247 nM; in experiment [2], 21 nM.

Take `CNCCN1CCC(c2ccc3[nH]c(-c4ccc(OC)c(OC)c4)c(CC(F)(F)F)c3c2)CC1` [Example 413, 2-(4-(2-(3,4-dimethoxyphenyl)-3-(2,2,2-trifluoroethyl)-1H-indol-5-yl)piperidin-1-yl)-N-methylethanamine]: the IC50 in experiment [1] was 626 nM; in experiment [2] it was 28 nM.

As for `CNCC(=O)N1CCC(c2ccc3[nH]c(-c4ccc(OC)c(OC)c4)c(CC(F)(F)F)c3c2)CC1` [Example 414, 1-(4-(2-(3,4-dimethoxyphenyl)-3-(2,2,2-trifluoroethyl)-1H-indol-5-yl)piperidin-1-yl)-2-(methylamino)ethanone], the values for the IC50 in experiment [1] and in experiment [2] were 1170 nM and 86 nM, respectively.

`CCN(CC)C(=O)C1CCCN(CC(=O)N2CCC(c3ccc4[nH]c(-c5ccc(OC)c(OC)c5)c(CC(F)(F)F)c4c3)CC2)C1` (stereo not drawn) [Example 418, 1-(2-(4-(2-(3,4-dimethoxyphenyl)-3-(2,2,2-trifluoroethyl)-1H-indol-5-yl)piperidin-1-yl)-2-oxoethyl)-N,N-diethylpiperidine-3-carboxamide]: the IC50 in experiment [1] was 1450 nM; in experiment [2], 77 nM.

Take `COc1ccc(-c2[nH]c3ccc(C4CCN(C(=O)CN5CCCC(C(=O)N(C)C)C5)CC4)cc3c2CC(F)(F)F)cc1OC` (stereo not drawn) [Example 419, 1-(2-(4-(2-(3,4-dimethoxyphenyl)-3-(2,2,2-trifluoroethyl)-1H-indol-5-yl)piperidin-1-yl)-2-oxoethyl)-N,N-dimethylpiperidine-3-carboxamide]: the IC50 in experiment [1] stood at 2950 nM; in experiment [2], 47 nM.

Source of the values: patent US11180474B2 (BRISTOL-MYERS SQUIBB COMPANY, priority 2016, dated 2021).
